Entries after “also recorded” stand apart in the source; their conditions may differ. Read-outs that look alike come from different tables or passages of the source.
What was measured:
[1] = system: 64 bp SV40 core origin (SEQ ID NO: 24); experiment: Peptide band shift (EMSA without T-ag), core origin; format: binding; settings: SV40 core origin
Description: (§1) Electrophoretic mobility shift assays (EMSA). Double stranded oligonucleotides, ^32P labeled at 5′ termini, were prepared using standard procedures (Sambrook, J., et al., 1989, Cold Spring Harbor Laboratory, Cold Spring Harbor, N.Y.; Sreekumar, K. A., et al., 2000, p. 49-67; In, L. Raptis (ed.), Methods in Molecular Biology; SV40 Protocols; Humana Press; Totowa, N.J.). EMSA rections were conducted using conditions for SV40 in vitro replication (Wobbe, C. R., et al., 1985, Proc. Natl. Acad. Sci. USA 82:5710-571 4). The reactions (20 μl) contained 7 mM MgCl2, 0.5 mM DTT, 4 mM AMP-PNP, 40 mM creatine phosphate (pH 7.6), 0.48 μg of creatine phosphate kinase, 5 μg of bovine serum albumin, 0.8 μg of Hae III-digested pBR322 ([…]; used as a nonspecific competitor), about 25 fmol of double stranded oligonucleotide, T-ag and the indicated amounts of peptide. After a 20-min incubation at 37° C., glutaraldehyde (0.1 % final concentration) was added and the reaction products were further incubated for 5 min. The reactions were stopped by the addition of 5 μl of 6× loading dye II (15% Ficoll, 0.25% bromophenol blue, and 0.25% xylene cyanol; Sambrook, J., et al., 1989, Cold Spring Harbor Laboratory, Cold Spring Harbor, N.Y.) to the reaction mixtures. Samples containing T-ag were applied to 3.5 to 12% gradient polyacrylamide gels and electrophoresed in 0.5% Tris-borate-EDTA (TBE) pH 8.4 for about 1.5 h (10 watts).
[…] Moreover, the samples were loaded on 8% polyacryamide gels and electrophoresed in 0.5% TBE pH 8.4 for about 3h (about 200 volts). The gels were dried on Whatman 3 MM paper, subjected to autoradiography and quantitated using a Molecular Dynamics PhosphorImager (Sunnyvale, Calif.).

[2] = system: double stranded oligonucleotide containing the SV40 core origin (SEQ ID NO: 24); experiment: Nitrocellulose filter binding of peptide to DNA; settings: for Binding to DNA in filter binding assay, mutant set: 20 nmoles peptide (1 mM final concentration); for Binding to DNA in filter binding assay, E1 peptides: peptide 0.25 mM and 0.5 mM
Description: Nitrocellulose filter binding reactions. Assay for the ability of NLS based peptides to bind to DNA were performed using published methods (Sreekumar, K. A., et al., 2000, In, L. Raptis (ed.), Methods in Molecular Biology: SV40 Protocols; Humana Press, Totowa, N.J. p. 49-67). Reactions (20 μl) contained 7 mM MgCl2, 0.5 mM DTT, 4 mM AMP-PNP, 40 mM creatine phosphate (di-Tris salt pH7.7), 0.48 μg of creatine phosphokinase, 0.2 mg of bovine serum albumin per ml, 0.8 μg of Hae III-digested pBR322 DNA, about 25 fmol of a given oligonucleotide (about 10^6 cpm/pmol) and the indicated peptide. After incubation for 20 min at 37° C., the mixtures were filtered under suction through alkali-treated nitrocellulose filters (Millipore type HAWP; pore size, 0.4 μm; stored in 100 mM Tris-HCl, pH7.5). The filters were then washed with 5 ml of 100 mM Tris-HCl, pH 7.5, and were dried and counted in a Beckman LS 3801 scintillation counter.

[3] = molecular target: T1, T-ag oligomerization on 64-bp oligonucleotide containing the SV40 core origin (Simian virus 40, UniProt P03070); format: biochemical; settings: for Effect on T-ag oligomerization: peptide final concentration 0.5 mM
T1 construct: made in house
Description: as §1

[4] = system: 64 bp enhancer control (SEQ ID NO: 29); experiment: Peptide band shift (EMSA without T-ag), control oligonucleotide; format: binding; settings: 64 bp enhancer control oligonucleotide; listed as peptide T124A13
Description: as §1
Peptide based band shift reactions were identical to those described above except that T-ag was omitted from the reactions and the final glutaraldehyde concentration was reduced to 0.05 %. Moreover, the samples were loaded on 8% polyacryamide gels and electrophoresed in 0.5% TBE pH 8.4 for about 3h (about 200 volts). The gels were dried on Whatman 3 MM paper, subjected to autoradiography and quantitated using a Molecular Dynamics PhosphorImager (Sunnyvale, Calif.).

[5] = molecular target: T2, T-ag helicase ATPase (Simian virus 40, UniProt P03070); format: biochemical, SV40; settings: duplicate lanes, FIG. 13
T2 construct: made in house
Description: A method for measuring ATP hydrolysis involves incubating T-ag with a ^32P-labeled ATP, cross-linking with gluteraldehyde, removing unincorporated nucleotides by passing the reaction products over a Bio-Spin P-30 column, drying the eluate in a Speedvac, resuspending the samples in formic acid, and performing thin layer chromatography on PEI (polyethyleneimine) plates. Using autoradiography, the amount of ATP, ADP and AMP associated with T-ag was determined.

[6] = system: SV40 DNA replication in HeLa human cell crude extracts; experiment: SV40 in vitro replication reaction; format: biochemical; settings: 30 μl reactions, with T-ag
Description: DNA replication reactions. SV40 in vitro replication reactions were conducted as described by Wobbe et al 1985, Proc. Natl. Acad. Sci. USA 82:5710-5714 (see also, Bullock, P. A., et al., 1998, p. 223-243. In S. Cotterill (ed.), Eukaryotic DNA Replication; A practical Approach, Oxford University Press, Oxford). Reaction mixtures (30 μl) contained 7 mM MgCl2, 0.5 mM DTT, 4 mM ATP, 40 mM creatine phosphate (di-Tris salt pH7.7), 1.4 μg of creatine phosphokinase, 12.5 μg/ml pSV01ΔEP, dATP, dGTP, and dTTP (100 μM each), CTP, GTP, and UTP (200 μM each), [α-^32p] dCTP (20 μM, about 5 cpm/fmol) and the indicated peptides.

[7] = 13-mer set at 1 mM final concentration (20 nmoles)
[8] = T-ag 6 pmol, 64-bp SV40 core origin, peptide concentration not given
[9] = peptide 0.5 mM to 2 mM, replication conditions, pBR322 competitor
[10] = high peptide concentrations (1 mM and 2 mM)
[11] = peptide final concentration 1 mM (20 nmoles), T-ag 6 pmol

T1 sequence (P03070 whole entry): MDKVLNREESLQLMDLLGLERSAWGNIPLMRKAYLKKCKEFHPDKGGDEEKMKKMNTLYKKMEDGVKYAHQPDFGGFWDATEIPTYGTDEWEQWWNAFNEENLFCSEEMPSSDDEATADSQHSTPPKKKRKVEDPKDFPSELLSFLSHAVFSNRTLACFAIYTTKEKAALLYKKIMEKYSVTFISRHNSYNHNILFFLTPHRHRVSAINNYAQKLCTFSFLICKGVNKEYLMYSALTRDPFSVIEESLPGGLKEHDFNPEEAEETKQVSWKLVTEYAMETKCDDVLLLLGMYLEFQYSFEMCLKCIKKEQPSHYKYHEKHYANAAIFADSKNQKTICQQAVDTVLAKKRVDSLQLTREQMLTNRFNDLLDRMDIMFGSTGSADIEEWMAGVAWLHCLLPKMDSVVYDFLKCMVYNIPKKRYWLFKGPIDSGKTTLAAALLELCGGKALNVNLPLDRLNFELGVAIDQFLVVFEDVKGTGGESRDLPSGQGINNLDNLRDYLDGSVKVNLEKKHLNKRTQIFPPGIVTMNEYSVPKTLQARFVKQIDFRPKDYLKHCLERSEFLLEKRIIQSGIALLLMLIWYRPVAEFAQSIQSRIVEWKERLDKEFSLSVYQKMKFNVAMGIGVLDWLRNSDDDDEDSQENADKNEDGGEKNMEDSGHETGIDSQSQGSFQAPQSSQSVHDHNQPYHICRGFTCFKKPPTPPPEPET
T2 sequence (P03070 whole entry): as above

Substance: ADSQHSAPPKKKR [T124A13]
- Peptide/DNA complex formation in peptide band shift [1, 7]: does not affect DNA binding
- Peptide/DNA complex formation in peptide band shift ([1]; 13-mer set at 1 mM final concentration (20 nmoles), listed as peptide T124A13): bound to DNA and formed a complex; also recorded: Mobility shifts are seen
- Binding to DNA in filter binding assay, mutant set [2]: bind to DNA as well as does wild type peptide T-213
- Effect on T-ag oligomerization, mutant set (FIG. 11 Panel B) [3, 8]: does not destroy the inhibitory property of the peptide
- Peptide/DNA complex formation in peptide band shift [4]: does not require a large degree of sequence specificity; also recorded: requires little demonstrable nucleotide sequence specificity; also recorded: Mobility shifts are seen

Substance: ADSQHSTAPKKKR [P125A13]
- Binding to DNA in filter binding assay, mutant set [2]: bind to DNA as well as does wild type peptide T-213
- Effect on T-ag oligomerization, mutant set (FIG. 11 Panel B) [3, 8]: Full inhibition of oligomerization

Substance: ADSQHSTPAKKKR [P126A13]
- Binding to DNA in filter binding assay, mutant set [2]: bind to DNA as well as does wild type peptide T-213
- Effect on T-ag oligomerization, mutant set (FIG. 11 Panel B) [3, 8]: Full inhibition of oligomerization

Substance: ADSQHSpTPPKKKR [peptide 113]
- Binding to DNA in filter binding assay [2, 9]: did not bind DNA at significant levels
- Binding to DNA in filter binding assay ([2]; peptide 0.5 mM to 2 mM, replication conditions, pBR322 competitor, listed as peptide T-113): did not bind to the oligonucleotide at significant levels
- Effect on ATPase of T-ag [5]: did not modulate the ATPase of T-ag activity
- Effect on T-ag oligomerization (hexamer and double hexamer formation) [3]: little or no effect on T-ag oligomerization
- Effect on T-ag oligomerization, mutant set (FIG. 11 Panel B) [3]: did not; also recorded: no inhibition of oligomerization of T-ag

Substance: ATADSQHSTPPKKKRKV (Virus; Host Macaca mulatta; DOMAIN (1)..(17) Domain SV40 T-Antigen (116)...(132)) [peptide 217, 17-mer of SV40 T-ag with complete NLS]
- Inhibition of SV40 in vitro DNA replication [6]: not an efficient inhibitor of DNA replication; also recorded: unable to inhibit replication
- Binding to DNA in filter binding assay [2, 10]: saturated
- Binding to DNA in filter binding assay ([2]; peptide 0.5 mM): significant binding was observed
- Binding to DNA in filter binding assay [2, 9]: relatively high affinity for binding to DNA
- Binding to DNA in filter binding assay ([2]; peptide 0.5 mM to 2 mM, replication conditions, pBR322 competitor, listed as peptide T-217): higher affinity for this DNA than does peptide T-213
- Effect on T-ag oligomerization ([3]; T-ag 6 pmol): inhibited T-ag oligomerization
- Effect on T-ag oligomerization (hexamer and double hexamer formation) [3, 11]: completely blocked

Substance: ATADSQHSpTPPKKKRKV [peptide 117]
- Binding to DNA in filter binding assay [2, 10]: observed to bind to DNA
- Binding to DNA in filter binding assay ([2]; high peptide concentrations (1 mM and 2 mM), listed as peptide T-117): observed to bind to DNA at higher peptide concentrations
- Effect on T-ag oligomerization (hexamer and double hexamer formation) [3]: no inhibition of T-ag assembly

Substance: KKRRKRVKLVGPSTSEQSNASESSG [SEQ ID NO: 30]
- Inhibition of SV40 in vitro DNA replication [6]: retains ability to inhibit replication of DNA
- Inhibition of SV40 in vitro DNA replication ([6]; listed as SEQ ID NO:30): good inhibitor of DNA replication

Substance: PPKKKRKVTATADSQHS [peptide 417, rearranged control 17-mer]
- Binding to DNA in filter binding assay [2, 10]: observed to bind to DNA
- Binding to DNA in filter binding assay ([2]; high peptide concentrations (1 mM and 2 mM), listed as peptide T-417): observed to bind to DNA at higher peptide concentrations
- Effect on T-ag oligomerization ([3]; T-ag 6 pmol): did not inhibit
- Effect on T-ag oligomerization ([3]; T-ag 6 pmol, listed as peptide T-417): did not

Substance: PPKKKRKVpTATADSQHS [peptide 317]
- Effect on T-ag oligomerization (hexamer and double hexamer formation) [3]: no inhibition of T-ag assembly

Substance: PPKKKRTADSQHS [peptide 413, rearranged control 13-mer]
- Peptide/DNA complex formation in peptide band shift [1, 7]: did not
- Binding to DNA in filter binding assay [2, 10]: Low levels of binding
- Binding to DNA in filter binding assay ([2]; high peptide concentrations (1 mM and 2 mM), listed as peptide T-413): low levels of binding
- Effect on T-ag oligomerization (hexamer and double hexamer formation) [3, 11]: little or no effect on T-ag oligomerization

Substance: PPKKKRpTADSQHS [peptide 313]
- Effect on T-ag oligomerization (hexamer and double hexamer formation) [3]: little or no effect on T-ag oligomerization

Substance: RKVLGSSQNSSGSEASEpTPVKRRK [peptide E1-P125]
- Binding to DNA in filter binding assay, E1 peptides [2]: binds to DNA at levels similar to the control peptide E1-425
- Effect on ATPase of T-ag [5]: had no effect

Substance: SEASETPVKRRKGKRKVLGSSQNSS [control BP-E125]
- Inhibition of SV40 in vitro DNA replication [6]: not an efficient inhibitor of replication
- Binding to DNA in filter binding assay, E1 peptides [2]: bound to DNA at much reduced levels
- Effect on T-ag assembly, E1 Cdk/NLS peptides ([3]; 5 nmol peptide, final concentration 0.25 mM, T-ag 6 pmol): found not to block T-ag assembly

Substance: SQHSTPPKK [peptide 29]
- Peptide/DNA complex formation in peptide band shift ([1]; peptide 2 mM): binding was not detected

Reference: patent publication US20040147006A1, “Peptides that bind to DNA and inhibit DNA replication, and methods of use” (priority 2001, published 2004)
